Patent US8455510B2
Like-named read-outs stand apart in the source and are kept apart here.

Columns and labels:
FKBP-12 protein = molecular target: T1, FKBP-12 protein (Homo sapiens, UniProt P62942); assay: SPR (surface plasma resonance) binding with FKBP-12
T1 construct: purchased sigma Co
Protocol: (1) FKBP-12 protein was purchased from sigma Co.
(2) HBS-EP buffer solution (10 mM Hepes, 150 mM NaCl, 3.4 mM EDTA, 0.005% (v/v) surfactant P20, pH 7.4)
(3) Activating reagents EDC and NHS, and blocking reagents Ethanolamine, etc., were purchased from BIACORE AB Co. (Uppsala, Sweden).
(4) BIAcore 3000 and CM5 chip were purchased from BIACORE AB Co. (Uppsala, Sweden).
(2) […] was coupled to the FC2 channel on CM5 chip by using the Wizard for amino-coupling in Biacore 3000 controlling soft. 3.3 g/L of FKBP-12 protein was diluted with 10 mM NaAC (pH 4.6) to 66 μg/ml. The surface of the chip was washed by injecting a mixture of 0.1M1-(3-dimethylaminopropyl)-3-ethylcarbodiimide hydrochloride (EDCI) and 0.1M N-hydroxysuccinimide (NHS) (1:1) at a flow rate of 20 μL/min for 7 min. After that, the protein solution was injected, and then a 1M cholamine (pH 8.5) solution was fed for 7 min to block the activated surface of the chip. Preliminary screening and pharmacokinetic tests on the compounds
The binding abilities of small molecular compounds with FKBP-12 protein were evaluated by SPR (surface plasma resonance). The stock solution of the compound was 10 mM, and was diluted by HBS-EP buffer solution at given ratios. Pharmacokinetic tests were carried out by the Wizard for kinetic analysis in Biacore 3000 controlling soft. The resulted data were fitted by 1:1 Langmuir binding model or stability model in Biacore 3000 analytical soft to obtain the exact kinetic and thermodynamic constants.

[1] = test system: normal mouse spleen T lymphocytes induced by ConA; assay: 3H-TdR incorporation, ConA-induced T lymphocyte proliferation; format: cell-based, BALB/c mice; conditions: read-out: IC50, proliferation of T lymphocytes induced by ConA
Protocol: ^3H-thymidine incorporation was adopted to measure the effect of the in vitro administered compound on the proliferation function of the spleen lymphocytes of normal mice induced by a mixed culture of mitogen/allogeneic mouse spleen lymphocytes, and evaluate the in vitro immunosuppressive activity of the compound.
Measurement of the effects of compounds on the proliferation function of mouse spleen lymphocytes induced by mitogen by ^3H-TdR incorporation: 100 μl cell suspension of mouse spleen lymphocytes was inoculated on a 96-well plate (4×10^5 per well), followed by addition of 50 μl of ConA (final concentration: 5 μg/ml), 50 μl of LPS (final concentration: […]) or 50 μl of compound at different concentrations. The total volume of each well was 200 μl. The test was carried out in triplicate wells for each concentration, and included control wells without ConA/LPS or the compound. After the 96-well plate was placed in an incubator at 37° C. with 5% CO2 for 48 hours, 25 μl of ^3H-thymidine (10 μCi/ml) was added in each well 8 hours before the end of incubation. […] The amount of ^3H-TdR incorporated in cell DNA was determined by a Beta cell counter (MicroBeta Trilux, PerkinElmer), and the cell proliferation was represented as a cpm value.

[2] = test system: acute graft-versus-host disease (aGVHD); assay: Acute graft-versus-host disease (aGVHD) mouse model; format: in vivo, C57B/6 mice; conditions: 1.5 mg/kg/d, intraperitoneal injection, FIG. 15
Protocol: Donator: BABL/C mice; acceptor: C57B/6 mice.
C57B/6(H-2^b) mice, female, 7 weeks old, were used as the acceptor mice to receive 8.5 Gy of total body irradiation in a Gammacell.
After the acceptor mice received irradiation for 4 to 6 hours, the heterogenetic bone marrow transplantation was carried out.
BABL/C(H-2^d) mice, female, 4 weeks old were used as the donator mice. The bone marrow cells in long bone of the mice limbs and the spleen lymphocytes were collected and suspended in a PBS buffer solution respectively by adjusting the cell concentration to 1×10^8.
The two kinds of cells were mixed equivalently to prepare a mixed cell suspension. Each acceptor mouse was intravenously injected with 0.5 ml of the suspension.
Mice were randomly divided into 3 groups with 10 mice in each group. Mice were administered once daily from the first day when the bone marrow transplantation was carried out.
Y-31 group (1.5 mg/kg/d, intraperitoneal injection)
(1) Body weight: weighted once daily;
(2) The survival time of the mice after BMT was recorded.

[3] = test system: bovine type II collagen-induced arthritis; assay: Bovine type II collagen-induced arthritis; format: in vivo, DBA/1 mice; conditions: 1 mg/kg, from 14th day after attack, 3 weeks, FIG. 16, P<0.05
[4] = test system: human prostate cancer PC-3 xenograft; assay: PC-3 xenograft on nude mice; conditions: 1-5 × 3.5 w; for TV (mm3) d0: baseline

T1 sequence (P62942 whole entry, species assumed): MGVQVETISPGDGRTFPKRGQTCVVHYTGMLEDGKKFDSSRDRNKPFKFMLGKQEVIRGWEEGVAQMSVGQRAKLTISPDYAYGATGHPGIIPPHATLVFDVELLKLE

CO[C@H]1C[C@@H]2CC[C@@H](C)[C@@](O)(O2)C(=O)C(=O)N2CCCC[C@H]2C(=O)O[C@H]([C@H](C)C[C@@H]2CC[C@@H](OC(=O)OCC(O)CO)[C@H](OC)C2)CC(=O)[C@H](C)/C=C(\C)[C@@H](O)[C@@H](OC)C(=O)[C@H](C)C[C@H](C)/C=C/C=C/C=C/1C (some centres unmarked) [Y31]
binding with FKBP12 (FKBP-12 protein): concentration-dependently bind
Kd (FKBP-12 protein; FKBP12): 0.1 nM
koff (FKBP-12 protein; FKBP12): 0.11 × 10^−3 S^−1
kon (FKBP-12 protein; FKBP12): 1.05 × 10^6 M^−1S^−1
R^U (Response Unit) compared with rapamycin (FKBP-12 protein; at the same concentration): higher
concentration to reach the saturation state for the binding with FKBP12 (FKBP-12 protein; compared with rapamycin): lower than that for rapamycin
IC50 ([1]; ConA 5 μg/ml, 48 hours, 3H-TdR): 331 nM
effect on the survival rate of the aGVHD mice [2]: markedly increase the survival rate
effect on the weight loss caused by aGVHD [2]: significantly alleviate the weight loss
effect on the severe degree of CIA (arthritis score) [3]: significantly reduce the severe degree of CIA

CO[C@H]1C[C@@H]2CC[C@@H](C)[C@@](O)(O2)C(=O)C(=O)N2CCCC[C@H]2C(=O)O[C@H]([C@H](C)C[C@@H]2CC[C@@H](O)[C@H](OC)C2)CC(=O)[C@H](C)/C=C(\C)[C@@H](O)[C@@H](OC)C(=O)[C@H](C)C[C@H](C)/C=C/C=C/C=C/1C [Rapamycin]
IC50 [1]: 196 nM
Body Weight (g) end ([4]; Table 3, 2.5 mg/kg p.o): 21.8 g
Body Weight (g) start ([4]; Table 3, 2.5 mg/kg p.o): 19.8 g
RTV ([4]; Table 3, 2.5 mg/kg p.o): 3.03 ± 1.5
T/C (%) ([4]; Table 3, 2.5 mg/kg p.o): 46.5%
TV (mm3) d21 ([4]; Table 3, 2.5 mg/kg p.o): 277 ± 98 mm3
TV (mm3) d0 ([4]; Table 3, 2.5 mg/kg p.o): 100 ± 39 mm3
Body Weight (g) end ([4]; Table 3, 5 mg/kg p.o): 22.2 g
Body Weight (g) start ([4]; Table 3, 5 mg/kg p.o): 22.2 g
RTV ([4]; Table 3, 5 mg/kg p.o): 2.0 ± 1.2
T/C (%) ([4]; Table 3, 5 mg/kg p.o): 30.9%
TV (mm3) d21 ([4]; Table 3, 5 mg/kg p.o): 170 ± 88 mm3
TV (mm3) d0 ([4]; Table 3, 5 mg/kg p.o): 96 ± 38 mm3
